# Reference: US20120065228A1, “COMPOSITIONS AND METHODS FOR TREATING, CONTROLLING, REDUCING, OR AMELIORATING OCULAR INFLAMMATORY WITH LOWER RISK OF INCREASED INTRAOCULAR PRESSURE” (priority 2007, published 2012)
# Several values for one entry are separate records, joined by “and”; a condition that tells them apart may be missing. Equal values may be shown once.
# What was measured:
# rabbit eye = experiment: Clinical evaluation by slit lamp (clinical score), rabbit paracentesis model; format: in vivo; parameters: key to Clinical Score −180 min / Clinical Score −5 min / Clinical Score +115 min: 0: normal; 1: discrete dilatation of iris and conjunctival vessels; 2: moderate dilatation of iris and conjunctival vessels; 3: intense iridal hyperemia with flare in the anterior chamber; 4: intense iridal hyperemia with flare in the anterior chamber and presence of fibrinous exudates; settings: for Clinical Score −5 min: 5 min before the first paracentesis; for Clinical Score −5 min / Clinical Score +115 min / Clinical Score −180 min: individual eyes; for Clinical Score +115 min: 5 min before the second paracentesis; for Clinical Score −180 min: basal
# [1] = system: intraocular pressure (IOP) in New Zealand White rabbits; experiment: Intraocular pressure in New Zealand White rabbits, topical dosing four times daily; format: in vivo; settings: for Intraocular Pressure, MEAN: A.M. readings
# Procedure: On Days 1-31, animals received daily topical doses of the appropriate test article into the right eye. Animals were dosed four times per day, with doses administered 2 hours apart. Doses were administered using a calibrated 50-μL pipette. The eyelids were held close for 10 seconds immediately following dosing. The time of each dose administration was recorded.
# Intraocular pressure (“IOP”) was determined for both eyes of each animal on Days 3, 5, 10, 12, 16, 18, 22, 24, 26, 30, and 32. LOP was evaluated with a Medtronic Solan, Model 30 classic pneumatonometer. Proparacaine hydrochloride 0.5% (1 drop) was delivered to each eye prior to IOP measurement. IOP was measured on Monday, Wednesday, and Friday of each week. A two-point diurnal curve was established: IOP was recorded at 8 a.m. and 12 p.m. on Day 3, and at 8 a.m. and 2 p.m. on later days, with a ±1 hour range for each of these times. The time of the measurements was recorded.
# Descriptive statistics were prepared for IOP data of each treatment group (left and right eyes separately) at each measurement interval. The statistics included the number of observations (“N”), mean, standard deviation (“STD”), and standard error (“SEM”). Statistical analyses were conducted on IOP results using Statistical Analysis Systems (SAS Institute, Inc., Cary, N.C., V8.0). Parameters were evaluated using analysis of variance/GLM Procedure followed by Tukey's Standardized Range Test (Tukey, 1985) for post hoc comparisons of group means. The level of significance was set at a probability of p<0.05 for all statistical procedures. Group IOP means were compared at each interval, with left and right eyes compared separately.
# IOP data for the following six animals were excluded from group statistics: Group A, Nos. 3081, 3037, 3068, and 3011; Group C, No. 3034; and Group E, No. 3084.
# [2] = 0.1% topical formulation, +115 min, 8 eyes
# [3] = 0.5% topical formulation, +115 min, 8 eyes
structure (smiles),measurement,setting,value
Cc1ccc2c(NCC(O)(CC(C)(C)c3cc(F)cc4c3OCC4)C(F)(F)F)cccc2n1 (stereo not shown) [BOL-303242-X],Clinical Score −5 min,rabbit eye; 0.1% topical formulation,0
same,Clinical Score +115 min,"rabbit eye; 0.1% topical formulation, listed as BOL",2 (6×) and 3 (2×)
same,"Clinical score as percentage of eyes, Score (%) 2",rabbit eye; [2],75%
same,"Clinical score as percentage of eyes, Score (%) 3",rabbit eye; [2],25%
same,Clinical Score −180 min,rabbit eye; 0.1% topical formulation,0
same,"Clinical score as percentage of eyes, Score (%) 0","rabbit eye; 0.1% topical formulation, −5 min, 8 eyes",100%
same,"Clinical score as percentage of eyes, Score (%) 0","rabbit eye; 0.1% topical formulation, −180 min (basal), 8 eyes",100%
same,Clinical Score −5 min,rabbit eye; 0.5% topical formulation,0
same,Clinical Score +115 min,"rabbit eye; 0.5% topical formulation, listed as BOL",2 (5×) and 1 (3×)
same,"Clinical score as percentage of eyes, Score (%) 1",rabbit eye; [3],37.5%
same,"Clinical score as percentage of eyes, Score (%) 2",rabbit eye; [3],62.5%
same,Clinical Score −180 min,rabbit eye; 0.5% topical formulation,0
same,"Clinical score as percentage of eyes, Score (%) 0","rabbit eye; 0.5% topical formulation, −5 min, 8 eyes",100%
same,"Clinical score as percentage of eyes, Score (%) 0","rabbit eye; 0.5% topical formulation, −180 min (basal), 8 eyes",100%
same,Clinical Score −5 min,rabbit eye; 1% topical formulation,0
same,Clinical Score +115 min,rabbit eye; 1% topical formulation,2
same,"Clinical score as percentage of eyes, Score (%) 2","rabbit eye; 1% topical formulation, +115 min, 8 eyes",100%
same,Clinical Score −180 min,rabbit eye; 1% topical formulation,0
same,"Clinical score as percentage of eyes, Score (%) 0","rabbit eye; 1% topical formulation, −5 min, 8 eyes",100%
same,"Clinical score as percentage of eyes, Score (%) 0","rabbit eye; 1% topical formulation, −180 min (basal), 8 eyes",100%
same,"Intraocular Pressure, MEAN","[1]; 1 mg/g BOL-303242-X (Group D), untreated left eyes, Day 3",23.5 mmHg
same,"Intraocular Pressure, MEAN","[1]; 1 mg/g BOL-303242-X (Group D), untreated left eyes, Day 5",24.4 mmHg
same,"Intraocular Pressure, MEAN","[1]; 1 mg/g BOL-303242-X (Group D), untreated left eyes, Day 10",24.5 mmHg
same,"Intraocular Pressure, MEAN","[1]; 1 mg/g BOL-303242-X (Group D), untreated left eyes, Day 12",22.2 mmHg
same,"Intraocular Pressure, MEAN","[1]; 1 mg/g BOL-303242-X (Group D), untreated left eyes, Day 16",21.6 mmHg
same,"Intraocular Pressure, MEAN","[1]; 1 mg/g BOL-303242-X (Group D), untreated left eyes, Day 18",23.3 mmHg
same,"Intraocular Pressure, MEAN","[1]; 1 mg/g BOL-303242-X (Group D), untreated left eyes, Day 22",22.4 mmHg
same,"Intraocular Pressure, MEAN","[1]; 1 mg/g BOL-303242-X (Group D), untreated left eyes, Day 24",22.4 mmHg
same,"Intraocular Pressure, MEAN","[1]; 1 mg/g BOL-303242-X (Group D), untreated left eyes, Day 26",22.9 mmHg
same,"Intraocular Pressure, MEAN","[1]; 1 mg/g BOL-303242-X (Group D), untreated left eyes, Day 30",23.4 mmHg
same,"Intraocular Pressure, MEAN","[1]; 1 mg/g BOL-303242-X (Group D), untreated left eyes, Day 32",24.1 mmHg
same,"Intraocular Pressure, MEAN","[1]; 1 mg/g BOL-303242-X (Group D), untreated left eyes, Pre-Study",23.9 mmHg
same,"Intraocular Pressure, MEAN","[1]; 5 mg/g BOL-303242-X (Group C), untreated left eyes, Day 3",23.8 mmHg
same,"Intraocular Pressure, MEAN","[1]; 5 mg/g BOL-303242-X (Group C), untreated left eyes, Day 5",24.4 mmHg
same,"Intraocular Pressure, MEAN","[1]; 5 mg/g BOL-303242-X (Group C), untreated left eyes, Day 10",24.6 mmHg
same,"Intraocular Pressure, MEAN","[1]; 5 mg/g BOL-303242-X (Group C), untreated left eyes, Day 12",23.8 mmHg
same,"Intraocular Pressure, MEAN","[1]; 5 mg/g BOL-303242-X (Group C), untreated left eyes, Day 16",23.4 mmHg
same,"Intraocular Pressure, MEAN","[1]; 5 mg/g BOL-303242-X (Group C), untreated left eyes, Day 18",21.9 mmHg
same,"Intraocular Pressure, MEAN","[1]; 5 mg/g BOL-303242-X (Group C), untreated left eyes, Day 22",21.6 mmHg
same,"Intraocular Pressure, MEAN","[1]; 5 mg/g BOL-303242-X (Group C), untreated left eyes, Day 24",22.1 mmHg
same,"Intraocular Pressure, MEAN","[1]; 5 mg/g BOL-303242-X (Group C), untreated left eyes, Day 26",21.7 mmHg
same,"Intraocular Pressure, MEAN","[1]; 5 mg/g BOL-303242-X (Group C), untreated left eyes, Day 30",22.6 mmHg
same,"Intraocular Pressure, MEAN","[1]; 5 mg/g BOL-303242-X (Group C), untreated left eyes, Day 32",23.1 mmHg
same,"Intraocular Pressure, MEAN","[1]; 5 mg/g BOL-303242-X (Group C), untreated left eyes, Pre-Study",24.2 mmHg
same,"Intraocular Pressure, MEAN","[1]; 10 mg/g BOL-303242-X (Group B), untreated left eyes, Day 3",23.3 mmHg
same,"Intraocular Pressure, MEAN","[1]; 10 mg/g BOL-303242-X (Group B), untreated left eyes, Day 5",23.4 mmHg
same,"Intraocular Pressure, MEAN","[1]; 10 mg/g BOL-303242-X (Group B), untreated left eyes, Day 10",24.0 mmHg
same,"Intraocular Pressure, MEAN","[1]; 10 mg/g BOL-303242-X (Group B), untreated left eyes, Day 12",23.8 mmHg
same,"Intraocular Pressure, MEAN","[1]; 10 mg/g BOL-303242-X (Group B), untreated left eyes, Day 16",22.9 mmHg
same,"Intraocular Pressure, MEAN","[1]; 10 mg/g BOL-303242-X (Group B), untreated left eyes, Day 18",21.2 mmHg
same,"Intraocular Pressure, MEAN","[1]; 10 mg/g BOL-303242-X (Group B), untreated left eyes, Day 22",21.8 mmHg
same,"Intraocular Pressure, MEAN","[1]; 10 mg/g BOL-303242-X (Group B), untreated left eyes, Day 24",20.2 mmHg
same,"Intraocular Pressure, MEAN","[1]; 10 mg/g BOL-303242-X (Group B), untreated left eyes, Day 26",21.7 mmHg
same,"Intraocular Pressure, MEAN","[1]; 10 mg/g BOL-303242-X (Group B), untreated left eyes, Day 30",22.7 mmHg
same,"Intraocular Pressure, MEAN","[1]; 10 mg/g BOL-303242-X (Group B), untreated left eyes, Day 32",22.9 mmHg
same,"Intraocular Pressure, MEAN","[1]; 10 mg/g BOL-303242-X (Group B), untreated left eyes, Pre-Study",23.8 mmHg
same,Differences in mean IOP versus the BSS group,"[1]; BOL-303242-X 1, 5, 10 mg/g suspensions",No statistically significant (p<0.05) differences
same,IOP compared to daily dosing with dexamethasone,"[1]; BOL-303242-X suspensions 0.05, 0.25 or 0.5 mg/dose, daily dosing up to 31 days",did not increase IOP
same,Mean IOP after treatment began,"[1]; rabbits, right eye four times daily up to 31 days, dexamethasone 0.1%, BOL-303242-X 1, 5, 10 mg/g, left and right eyes",This increase was not seen
same,"Intraocular Pressure, MEAN","[1]; treated right eyes, Day 3, 1 mg/g (Group D)",23.0 mmHg
same,"Intraocular Pressure, MEAN","[1]; treated right eyes, Day 3, 5 mg/g (Group C)",23.7 mmHg
